This is an account of results in patent US20250215029A1 (Recludix Pharma, Inc., priority 2022, published 2025).

Molecules are shown by their SMILES.

This assay deals with T1, pY705-STAT3 in PBMC (Homo sapiens, UniProt P40763).
T1 construct: Cryopreserved Peripheral Blood Mononuclear Cells (PBMC) are from AllCells; host or cells: cryopreserved PBMC
T1 sequence (P40763 whole entry): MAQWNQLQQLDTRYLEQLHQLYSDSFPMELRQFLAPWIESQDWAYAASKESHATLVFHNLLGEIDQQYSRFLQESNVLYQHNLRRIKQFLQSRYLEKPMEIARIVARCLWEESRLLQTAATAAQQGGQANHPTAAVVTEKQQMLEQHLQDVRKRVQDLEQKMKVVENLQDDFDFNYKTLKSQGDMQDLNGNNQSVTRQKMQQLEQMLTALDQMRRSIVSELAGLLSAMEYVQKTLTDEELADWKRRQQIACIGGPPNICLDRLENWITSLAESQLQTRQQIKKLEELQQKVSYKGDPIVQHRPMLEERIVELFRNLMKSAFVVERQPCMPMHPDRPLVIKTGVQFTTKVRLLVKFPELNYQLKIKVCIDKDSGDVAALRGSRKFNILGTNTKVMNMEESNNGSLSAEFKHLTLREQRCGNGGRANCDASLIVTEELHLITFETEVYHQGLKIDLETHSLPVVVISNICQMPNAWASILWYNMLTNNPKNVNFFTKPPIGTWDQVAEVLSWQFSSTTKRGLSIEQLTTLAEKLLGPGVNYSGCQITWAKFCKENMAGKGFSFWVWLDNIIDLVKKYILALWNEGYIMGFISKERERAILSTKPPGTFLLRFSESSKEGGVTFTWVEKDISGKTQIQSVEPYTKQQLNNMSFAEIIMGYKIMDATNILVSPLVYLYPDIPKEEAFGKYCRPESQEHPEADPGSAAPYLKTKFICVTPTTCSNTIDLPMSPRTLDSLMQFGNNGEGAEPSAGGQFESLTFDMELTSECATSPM
Put plainly: MSD-pSTAT-PBMC Assay (pSTAT3, IL-6 stimulated). The class given is cell-based. The conditions noted are these: PBMC, compound 3 hrs, then 10 ng/mL IL-6 for 10 min; Table 115; read-out: STAT3. The text has this: Cryopreserved Peripheral Blood Mononuclear Cells (PBMC) are from AllCells. Recombinant Human IL-4 and IL-6 are from Peprotech. Mouse monoclonal anti-STAT3 antibody, rabbit monoclonal anti-pY705-STAT3 antibody, rabbit monoclonal Anti-pY641-STAT6 antibody, and lysis buffer are from Cell Signaling Technology (CST). Mouse monoclonal anti-STAT6 antibody is from BioLegend. Assay plates, blocker, and anti-rabbit secondary antibody are from Meso Scale Discovery (MSD).
Cyropreserved PBMCs were thawed out and allowed to recover overnight in IMDM+10% heat-inactivated FBS prior to plating 50,000 (STAT3) or 25,000 (STAT6) cells per well in 96-well U-bottom tissue culture plates. Cells were treated with compound for 3 hrs, then stimulated with 10 ng/mL IL-6 (STAT3) or 1 ng/mL IL-4 (STAT6) for 10 min. Cells were then spun down and washed with ice-cold PBS prior to lysing the cell pellet with 1× lysis buffer (CST) with 1× HALT protease and phosphatase inhibitor cocktail (Thermo). Lysates were transferred to and incubated overnight at 4° C. with shaking in QuickPlex 96-well high bind assay plates (MSD) pre-coated overnight with 30 μL per well of 0.6 μg/mL mouse monoclonal anti-STAT3 antibody (STAT3) or 2 μg/mL mouse monoclonal anti-STAT6 antibody (STAT6) in 1× PBS, and pre-blocked for 1 hour with 3% Blocker-A (MSD). Captured protein in the assay plates were then washed and probed with 25 μL per well of […] rabbit monoclonal anti-pY705-STAT3 antibody (STAT3) or 0.18 μg/ml rabbit monoclonal Anti-pY641-STAT6 antibody (STAT6) in 1% Blocker-A for 1 hour at room temperature with shaking, then washed and probed with 25 ul per well of 1 ug/ml Sulfo-TAG Labeled Goat Anti-Rabbit Antibody (MSD) in 1% Blocker-A for 1 hour at room temperature with shaking. Assay plates were then washed and 150 μL of 1× Read Buffer-T (MSD) was added to each well prior to reading on an SQ120 MSD Plate Reader. Assay signal from each sample was subtracted by the signal from unstimulated control wells and normalized to DMSO control wells. IC50 values were calculated using Graph Pad Prism Dose-Response Nonlinear Regression with variable slope. For both pSTAT3 and pSTAT6 A=≤100 nM; B 100-1000 nM; C=>1000-3000 nM; D=>3 μM; and NT=Not Tested.
For `CCCOC(=O)[C@H](C)N[P@@](=O)(Oc1ccccc1)[C@H](F)c1ccc2sc(C(=O)N[C@H]3CCC[C@H]4CC[C@@H](C(=O)N5CC(c6cccnc6)C5)N4C3=O)cc2c1` (single isomer, unassigned) [Compound 463], the IC50 was < 100 nM.

As to `COc1ccncc1C1CN(C(=O)[C@@H]2CC[C@@H]3CCC[C@H](NC(=O)c4cc5cc([C@@H](F)[P@@](=O)(N[C@@H](C)C(=O)OC(C)C)Oc6ccccc6)ccc5s4)C(=O)N32)C1` (single isomer, unassigned) [Compound 955], the IC50 was < 100 nM.

Consider `COc1ccncc1C1CN(C(=O)[C@@H]2CC[C@@H]3CCC[C@H](NC(=O)c4cc5cc([C@@H](F)[P@@](=O)(N[C@@H](C)C(=O)OC(C)C)Oc6ccccc6)ccc5s4)C(=O)N32)C1` (single isomer, unassigned) [Compound 956], for which the IC50 is < 100 nM.

With `COc1ccncc1C1CN(C(=O)[C@@H]2CC[C@@H]3CCC[C@H](NC(=O)c4cc5cc([C@H](F)[P@@](=O)(N[C@@H](C)C(=O)OCC(C)(C)C)Oc6ccccc6)ccc5s4)C(=O)N32)C1` (single isomer, unassigned) [Compound 959], the IC50 is < 100 nM.

Take `COc1ccncc1C1CN(C(=O)[C@@H]2CC[C@@H]3CCC[C@H](NC(=O)c4cc5cc([C@H](F)[P@](=O)(N[C@@H](C)C(=O)OCC(C)(C)C)Oc6ccccc6)ccc5s4)C(=O)N32)C1` (single isomer, unassigned) [Compound 960]: the IC50 lay in the range of 100 to 1000 nM.

As to `CCCOC(=O)[C@H](C)N[P@](=O)(Oc1ccccc1)[C@H](F)c1ccc2sc(C(=O)N[C@H]3CCC[C@H]4CC[C@@H](C(=O)N5CC(c6cnccc6F)C5)N4C3=O)cc2c1` (single isomer, unassigned) [Compound 997], the IC50 is < 100 nM.

For the molecule `CCCOC(=O)[C@H](C)N[P@](=O)(Oc1ccccc1)[C@H](F)c1ccc2sc(C(=O)N[C@H]3CCC[C@H]4CC[C@@H](C(=O)N5CC(c6cnccc6F)C5)N4C3=O)cc2c1` (single isomer, unassigned) [Compound 998], the IC50 was < 100 nM.

With `CCCOC(=O)[C@H](C)N[P@](=O)(Oc1ccccc1)[C@H](F)c1ccc2sc(C(=O)N[C@H]3CCC[C@H]4CC[C@@H](C(=O)N5CC(c6cnccc6OC)C5)N4C3=O)cc2c1` (single isomer, unassigned) [Compound 999], the IC50 was < 100 nM.

With `CCCOC(=O)[C@H](C)N[P@@](=O)(Oc1ccccc1)[C@H](F)c1ccc2sc(C(=O)N[C@H]3CCC[C@H]4CC[C@@H](C(=O)N5CC(c6cnccc6C)C5)N4C3=O)cc2c1` (single isomer, unassigned) [Compound 1000], the IC50 is < 100 nM.

As for `CCCOC(=O)[C@H](C)N[P@@](=O)(Oc1ccccc1)[C@H](F)c1ccc2sc(C(=O)N[C@H]3C[C@@H](C)C[C@H]4CC[C@@H](C(=O)N5CC(c6cnccc6C)C5)N4C3=O)cc2c1` (single isomer, unassigned) [Compound 1001], the IC50 is < 100 nM.

With `COc1ccncc1C1CN(C(=O)[C@@H]2CC[C@@H]3CCC[C@H](NC(=O)c4cc5cc([C@H](F)[P@@](=O)(N[C@@H](C)C(=O)OC(C)C)Oc6ccccc6)ccc5s4)C(=O)N32)C1` (single isomer, unassigned) [Compound 1023], the IC50 lay within 100 to 1000 nM.

With `CCCOC(=O)[C@H](C)N[P@@](=O)(Oc1ccccc1)[C@@H](F)c1ccc2sc(C(=O)N[C@H]3CCC[C@H]4CC[C@@H](C(=O)N5CC(c6cnccc6C)C5)N4C3=O)cc2c1` (single isomer, unassigned) [Compound 1027], the IC50 is < 100 nM.

With `CCCOC(=O)[C@H](C)N[P@@](=O)(Oc1ccccc1)[C@@H](F)c1ccc2sc(C(=O)N[C@H]3CCC[C@H]4CC[C@@H](C(=O)N5CC(c6cnccc6OC)C5)N4C3=O)cc2c1` (single isomer, unassigned) [Compound 1032], the IC50 is < 100 nM.

For the molecule `CCCOC(=O)[C@H](C)N[P@](=O)(Oc1ccccc1)[C@@H](F)c1ccc2sc(C(=O)N[C@H]3C[C@@H](C)C[C@H]4CC[C@@H](C(=O)N5CC(c6cnccc6OC(C)C)C5)N4C3=O)cc2c1` (single isomer, unassigned) [Compound 1033], the IC50 is < 100 nM.

For `CCCOC(=O)[C@H](C)N[P@](=O)(Oc1ccccc1)[C@@H](F)c1ccc2sc(C(=O)N[C@H]3C[C@@H](C)C[C@H]4CC[C@@H](C(=O)N5CC(c6cnccc6OC(C)C)C5)N4C3=O)cc2c1` (single isomer, unassigned) [Compound 1034], the IC50 is < 100 nM.

Take `CCCOC(=O)[C@H](C)N[P@](=O)(Oc1ccccc1)[C@@H](F)c1ccc2sc(C(=O)N[C@H]3CCC[C@H]4CC[C@@H](C(=O)N5CC(c6cnccc6C)C5)N4C3=O)cc2c1` (single isomer, unassigned) [Compound 1035]: the IC50 was < 100 nM.

`CCCOC(=O)[C@H](C)N[P@@](=O)(Oc1ccccc1)[C@@H](F)c1ccc2sc(C(=O)N[C@H]3C[C@@H](C)C[C@H]4CC[C@@H](C(=O)N5CC(c6cnccc6C)C5)N4C3=O)cc2c1` (single isomer, unassigned) [Compound 1036]: the IC50 was < 100 nM.

As to `CCCOC(=O)[C@H](C)N[P@@](=O)(Oc1ccccc1)[C@@H](F)c1ccc2sc(C(=O)N[C@H]3C[C@@H](C)C[C@H]4CC[C@@H](C(=O)N5CC(c6cnccc6C)C5)N4C3=O)cc2c1` (single isomer, unassigned) [Compound 1037], the IC50 is < 100 nM.

Turning to `CCCOC(=O)[C@H](C)N[P@@](=O)(Oc1ccccc1)[C@@H](F)c1ccc2sc(C(=O)N[C@H]3CCC[C@H]4CC[C@@H](C(=O)N5CC(c6cnccc6OC)C5)N4C3=O)cc2c1` (single isomer, unassigned) [Compound 1039], the IC50 is < 100 nM.

`CCCOC(=O)[C@H](C)N[P@@](=O)(Oc1ccccc1)[C@@H](F)c1ccc2sc(C(=O)N[C@H]3C[C@H](C)C[C@H]4CC[C@@H](C(=O)N5CC(c6cnccc6OC)C5)N4C3=O)cc2c1` (single isomer, unassigned) [Compound 1040]: the IC50 was < 100 nM.

Take `CCCOC(=O)[C@H](C)N[P@@](=O)(Oc1ccccc1)[C@@H](F)c1ccc2sc(C(=O)N[C@H]3C[C@H](C)C[C@H]4CC[C@@H](C(=O)N5CC(c6cnccc6OC)C5)N4C3=O)cc2c1` (single isomer, unassigned) [Compound 1041]: the IC50 is < 100 nM.

As to `CCCOC(=O)[C@H](C)N[P@](=O)(Oc1ccccc1)[C@H](F)c1ccc2sc(C(=O)N[C@H]3CCC[C@H]4CC[C@@H](C(=O)N5CC(c6cnccc6N6CCOCC6)C5)N4C3=O)cc2c1` (single isomer, unassigned) [Compound 1044], the IC50 is < 100 nM.

On to `CCCOC(=O)[C@H](C)N[P@](=O)(Oc1ccccc1)[C@@H](F)c1ccc2sc(C(=O)N[C@H]3CCC[C@H]4CC[C@@H](C(=O)N5CC(c6cnccc6N6CCOCC6)C5)N4C3=O)cc2c1` (single isomer, unassigned) [Compound 1046], for which the IC50 was in the range of 100 to 1000 nM.

On to `CCCOC(=O)[C@H](C)N[P@](=O)(Oc1ccccc1)[C@@H](F)c1ccc2sc(C(=O)N[C@H]3CCC[C@H]4CC[C@@H](C(=O)N5CC(c6cnccc6N6CCOCC6)C5)N4C3=O)cc2c1` (single isomer, unassigned) [Compound 1047], for which the IC50 lay in the range of 100 to 1000 nM.

With `CCCOC(=O)[C@H](C)N[P@](=O)(Oc1ccccc1)[C@H](F)c1ccc2sc(C(=O)N[C@H]3C[C@@H](C)C[C@H]4CC[C@@H](C(=O)N5CC(c6cnccc6C)C5)N4C3=O)cc2c1` (single isomer, unassigned) [Compound 1048], the IC50 was < 100 nM.

Turning to `CCCOC(=O)[C@H](C)N[P@@](=O)(Oc1ccccc1)[C@H](F)c1ccc2sc(C(=O)N[C@H]3CCC[C@H]4CC[C@@H](C(=O)N5CC(c6cnccc6C)C5)N4C3=O)cc2c1` (single isomer, unassigned) [Compound 1049], the IC50 is < 100 nM.

On to `COc1ccncc1C1CN(C(=O)[C@@H]2CC[C@@H]3CCC[C@H](NC(=O)c4cc5cc([C@H](F)[P@@](=O)(N[C@@H](C)C(=O)OCc6ccccc6)Oc6ccccc6)ccc5s4)C(=O)N32)C1` (single isomer, unassigned) [Compound 1050], for which the IC50 was in the range of 100 to 1000 nM.

With `COc1ccncc1C1CN(C(=O)[C@@H]2CC[C@@H]3CCC[C@H](NC(=O)c4cc5cc([C@H](F)[P@@](=O)(N[C@@H](C)C(=O)OCc6ccccc6)Oc6ccccc6)ccc5s4)C(=O)N32)C1` (single isomer, unassigned) [Compound 1051], the IC50 lay within 100 to 1000 nM.
